Data on 1 compound can be found in patent publication US9095136B2, “2-IODO imidazole-derivatives” (BAYER INTELLECTUAL PROPERTY GMBH, priority 2011, dated 2015).

Each structure is given as a SMILES string.

In data set [1] the test system is Sphaerotheca fuliginea. As to the kind of experiment: Example B: Sphaerotheca test (cucumber)/protective. It is filed as in vivo. Conditions: protective, 500 ppm, evaluation 7 days after inoculation. As for the experimental part:
Solvent: 49 parts by weight of N,N-dimethylformamide Emulsifier: 1 part by weight of alkylaryl polyglycol ether To produce a suitable preparation of active compound, 1 part by weight of active compound is mixed with the stated amounts of solvent and emulsifier, and the concentrate is diluted with water to the desired concentration. To test for protective activity, young cucumber plants are sprayed with the preparation of active compound at the stated application rate. 1 day after the treatment, the plants are inoculated with a spore suspension of Sphaerotheca fuliginea. The plants are then placed in a greenhouse at 70% relative air humidity and a temperature of 23° C.

For another data set, the system named is Pyricularia oryzae. It is filed as in vivo. As to conditions: rice, preventative, 500 ppm, evaluation 6 days after inoculation.
The next data set deals with Puccinia recondita. Nature of the data set: Example T: preventative in vivo test with Puccinia recondita (brown rust on wheat). As to conditions: 500 ppm, evaluation 10 days after inoculation.
A short description of data set [2]: log P by HPLC on reversed-phase columns (EEC directive 79/831 Annex V.A8). It is filed as physicochemical.
The test system of data set [3] is Uromyces appendiculatus. Nature of the data set: Example W: preventative in vivo test with Uromyces appendiculatus (bean rust). Conditions: 500 ppm, evaluation 10 days after inoculation.
Data set [4] has as its system Sphaerotheca fuliginea. As to the kind of experiment: Example V: preventative in vivo test with Sphaerotheca fuliginea (powdery mildew on cucumber). As to conditions: 500 ppm, evaluation 12 days after inoculation.
For the next data set, the system named is Puccinia triticina. Nature of the data set: Example L: Puccinia triticina test (wheat)/protective. It is filed as in vivo. Conditions: protective, 500 ppm, evaluation 8 days after inoculation. As for the experimental part: Solvent: 49 parts by weight of N,N-dimethylacetamide Emulsifier: 1 part by weight of alkylaryl polyglycol ether To produce a suitable preparation of active compound, 1 part by weight of active compound is mixed with the stated amounts of solvent and emulsifier, and the concentrate is diluted with water to the desired concentration. To test for protective activity, young plants are sprayed with the preparation of active compound at the stated application rate. After the spray coating has dried on, the plants are sprayed with spores with a spore suspension of Puccinia triticina.

Data set [5] relates to Uromyces appendiculatus. Nature of the data set: Example Y: Uromyces test (beans)/protective, comparison. Type of data set: in vivo. As to conditions: protective, application rate 10 ppm, evaluation 10 days after inoculation. As for the experimental part:
Solvents: 24.5 parts by weight of acetone • 24.5 parts by weight of dimethylacetamide Emulsifier: 1 part by weight of alkylaryl polyglycol ether To produce a suitable preparation of active compound, 1 part by weight of active compound is mixed with the stated amounts of solvent and emulsifier, and the concentrate is diluted with water to the desired concentration. To test for protective activity, young plants are sprayed with the preparation of active compound at the stated application rate. […] The plants are then placed in a greenhouse at about 21° C. and a relative atmospheric humidity of about 90%.

Data set [6] relates to Fusarium nivale (var. majus). As to the kind of experiment: Example M: Fusarium nivale (var. majus) test (wheat)/protective. Type of data set: in vivo. Conditions: protective, 500 ppm, evaluation 5 days after inoculation. As to the method:
Solvent: 49 parts by weight of N,N-dimethylacetamide Emulsifier: 1 part by weight of alkylaryl polyglycol ether To produce a suitable preparation of active compound, 1 part by weight of active compound is mixed with the stated amounts of solvent and emulsifier, and the concentrate is diluted with water to the desired concentration. To test for protective activity, young plants are sprayed with the preparation of active compound at the stated application rate. After the spray coating has dried on, the plants are sprayed with a spore suspension of Fusarium nivale (var. majus).

The subject of a further data set is Fusarium graminearum. Type of data set: in vivo. Conditions: barley (heading), protective, 500 ppm, evaluation 5 days after inoculation.

Turning to `OC(Cc1ccccc1Cl)(Cn1ccnc1I)C1(Cl)CC1` (centres unmarked) [Example 1, 2-(1-chlorocyclopropyl)-1-(2-chlorophenyl)-3-(2-iodo-1H-imidazol-1-yl)propan-2-ol], the Eff. % was found to be 80% with Sphaerotheca fuliginea [1], 100% in the data set on Puccinia triticina, 100% in data set [6] and 100% with Fusarium graminearum. Moreover, the Efficacy % with Pyricularia oryzae, in the data set with Puccinia recondita, in the data set on Uromyces appendiculatus [3] and with Sphaerotheca fuliginea [4] was 100% each time. The chromatographic logP in [2] (pH 2.7, logP) was found to be 2.35; in [2] (pH 7.8, logP), 3.38. Besides, the Efficacy in % in the data set with Uromyces appendiculatus [5] came to 100%.
